Several values for one entry are separate records, joined by “and”; a condition that tells them apart may be missing. Equal values may be shown once. Entries after “also recorded” stand apart in the source; their conditions may differ. Read-outs that look alike come from different tables or passages of the source. Marks after values point to notes of the source that are not given here.
Columns and labels:
children with NPC = conditions: cited from earlier work
[1] = system: MDA-MB 231 and MCF-7 human breast epithelial cell lines; experiment: Wound healing assay, overall statements for both cell lines; format: cell-based; conditions: 1-4 mM
Protocol: (§1) Published results have shown that β-CD inhibits human MDA-MB 231 cell migration (Guerra et al. 2016). This inhibition was attributed to the ability of β-CD to “deplete cholesterol”. β-CD, however, depletes also phospholipids. […] Cells were cultured in 24-well culture plates (Cytoselect CBA-120, 0.9 mm wound healing/gap closure migration assay) for 24 hours with wound healing insert in place. […] Protocol: Warm up the 24-well plate (CBA-120, Cell BioLabs Inc.) with 0.9 mm CytoSelect Wound Healing Inserts at room temperature for 10 minutes. Using sterile forceps, orient the desired number of inserts in the plate wells with their “wound field” aligned in the same direction. Create a cell suspension containing 0.5-1.0×10^6 cells/ml in media containing 10% fetal bovine serum (FBS). Add 500 μL of cell suspension to each well by carefully inserting the pipette tip through the open end at the top of the insert. For optimal cell dispersion, add 250 μL of cell suspension to either side of the open ends at the top of the insert. Incubate cells in a cell culture incubator for 12-24 hours. Carefully remove the insert from the well to begin the wound healing assay. Use sterile forceps to grab and lift the insert slowly from the plate well. Slowly aspirate and discard the media from the wells. Wash wells with media to remove dead cells and debris. Finally, add media to wells to keep cells hydrated. Repeat wash if wells still have debris or unattached cells. When washing is complete, add media with FBS and/or compounds to continue cell culture and wound healing process. Agents that inhibit or stimulate cell migration can be added directly to the wells. Incubate cells in a cell culture incubator (2 hours) and then wash cells with PBS and then add fresh media without compounds. Incubate 12-24 hours before wash and fixing. Remove the fixation solution and add 400 μL of Cell Stain Solution to each well. Allow the stain to incubate with the cells for 15 minutes at room temperature. Aspirate and discard the solution. Carefully wash each stained well 3× with deionized water. Discard washes and allow cells to dry at room temperature. Cells that migrated into the wounded area or protruded from the border of the wound were visualized and photographed under an inverted microscope. Determine the surface area of the defined wound area: Total Surface Area=0.9 mm x length. Determine the surface area of the migrated cells into the wound area: Migrated Cell Surface Area=length of cell migration (mm)×2 x length. Percent Closure (%)=Migrated Cell Surface Area/Total Surface Area x 100.

[2] = Table 2; cited from earlier work
rats [3] = conditions: long-term parenteral administration, 200 mg/kg; cited from earlier work
human keratinocytes = conditions: cited from earlier work
rats [4] = conditions: cited from earlier work
BBB = conditions: cited from earlier work; for Transport across BBB: 2 h
rats [5] = conditions: rat, in vivo; cited from earlier work
renal cancer cells = conditions: triple combination treatment, mice implanted with renal cancer cells; cited from earlier work
mice, cats, one human = conditions: cats, and one human; cited from earlier work
[6] = cited from earlier work
MCF-7 cells = experiment: Wound healing / gap closure migration assay (CytoSelect CBA-120); format: cell-based, human; conditions: treated 2 hours
Protocol: as §1

MDA-MB-231 cells = experiment: as above; format: cell-based, human; conditions: treated 2 hours
Protocol: as §1

[7] = in vivo; cited from earlier work
leukemia mouse models = conditions: cited from earlier work
cats = conditions: doses of 4-8 g/kg; cited from earlier work
[8] = system: transgenic mouse model of AD; conditions: cited from earlier work
transferrin endocytosis = conditions: 10 mM; cited from earlier work
rats [9] = conditions: 1.000 g/kg daily; cited from earlier work
erythrocytes = conditions: cited from earlier work
[10] = cited from earlier work; remark: listed apart in the source
[11] = parenteral administration; cited from earlier work
[12] = parenteral delivery; cited from earlier work
rats [13] = conditions: rat, in vivo, cited from earlier work
human erythrocytes = conditions: cited from earlier work
rats [14] = conditions: cited from earlier work; remark: listed apart in the source
[15] = cyclosporine eye-drops; cited from earlier work
animal studies = conditions: cited from earlier work

## CC(O)COC[C@H]1O[C@@H]2O[C@H]3[C@H](O)[C@@H](O)[C@@H](O[C@H]4[C@H](O)[C@@H](O)[C@@H](O[C@H]5[C@H](O)[C@@H](O)[C@@H](O[C@H]6[C@H](O)[C@@H](O)[C@@H](O[C@H]7[C@H](O)[C@@H](O)[C@@H](O[C@H]8[C@H](O)[C@@H](O)[C@@H](O[C@H]1[C@H](O)[C@H]2O)O[C@@H]8COCC(C)O)O[C@@H]7COCC(C)O)O[C@@H]6COCC(C)O)O[C@@H]5COCC(C)O)O[C@@H]4COCC(C)O)O[C@@H]3COCC(C)O (stereo partly drawn) [HPbCD, hydroxypropyl-beta-cyclodextrin]
Children with NPC; about 2500 mg/kg bi-weekly, over a year, two children with NPC
  side effects: no discernable side effects
Children with NPC; children with NPC, doses of up to 1000 mg/kg/d
  tolerability: well tolerated
Children with NPC; steady state IV doses of 2.5 g/kg bi-weekly for >1 yr
  hearing: Hearing unaffected despite receiving steady state IV doses of
[1]
  migration versus concentration: migration decreased with higher concentration
[2]
  Solubility in water: >600 mg/mL
Rats [3]
  bone mineral density (BMD): decrease bone mineral density
Human keratinocytes
  apoptotic cell death: not apoptotic
Rats [4]
  acute i.v. toxicity in rats: 10 g/kg
BBB
  BBB breakdown: 2.5 mM
Rats [5]
  toxic effects at 1 g/kg: did not cause adverse clinical signs
Renal cancer cells
  tumor regression: necessary in triple combination treatment for tumor regression
mice, cats, one human
  hearing loss: risk of causing permanent hearing loss
[6]
  oral absorption in rats: ≤3%
MCF-7 cells; 1 mM
  average wound closure: 73.33%
  wound closure (Percent Closure), replications r1-r3: 68.00% and 74.00% and 78.00%
MCF-7 cells; 2 mM
  average wound closure: 48.33%
  wound closure (Percent Closure), replications r1-r3: 41.00% and 48.00% and 56.00%
MCF-7 cells; 4 mM
  average wound closure: 33.67%
  wound closure (Percent Closure), replications r1-r3: 32.00% and 28.00% and 41.00%
MDA-MB-231 cells; 1 mM
  average wound closure: 67.67%
  wound closure (Percent Closure), replications r1-r3: 62.00% and 68.00% and 73.00%
MDA-MB-231 cells; 2 mM
  average wound closure: 56.00%
  wound closure (Percent Closure), replications r1-r3: 48.00% and 59.00% and 61.00%
MDA-MB-231 cells; 4 mM
  average wound closure: 39.00%
  wound closure (Percent Closure), replications r1-r3: 48.00% and 44.00% and 25.00%
[7]
  Vol. of distribution (VD): 0.2 L/kg
  half-life (t1/2): 1.7 to 1.9 h
Leukemia mouse models
  survival: prolonged survival
cats
  hearing loss: permanent hearing loss
[8]
  neuroprotection: neuroprotective effects

## OC[C@H]1O[C@@H]2O[C@H]3[C@H](O)[C@@H](O)[C@@H](O[C@H]4[C@H](O)[C@@H](O)[C@@H](O[C@H]5[C@H](O)[C@@H](O)[C@@H](O[C@H]6[C@H](O)[C@@H](O)[C@@H](O[C@H]7[C@H](O)[C@@H](O)[C@@H](O[C@H]1[C@H](O)[C@H]2O)O[C@@H]7CO)O[C@@H]6CO)O[C@@H]5CO)O[C@@H]4CO)O[C@@H]3CO [α-cyclodextrin, alpha-cyclodextrin]
Transferrin endocytosis
  reduction of transferrin endocytosis: 20%
[2]
  Solubility in water: 130 to 145 mg/mL
Rats [9]
  nephrosis, 1, 2, 3, 4, or 7 daily doses s.c.: 1.000 severe nephrosis
erythrocytes; 10 mM
  phospholipids released: 30%
erythrocytes; above 10 mM
  release of phospholipids on increasing concentration: does not increase release of phospholipids
erythrocytes
  cholesterol extraction: negligible even at hemolytic concentrations
[10]
  i.v. toxicity, 1 g daily: 1 died after 2 d
[11]
  renal toxicity: showed renal toxicity
Human keratinocytes
  apoptotic cell death: not apoptotic
Rats [4]
  acute i.v. toxicity in rats: 0.5 to 0.8 g/kg
BBB; 0.5 mM
  Transport across BBB: 21.5%
BBB; 1 mM
  Transport across BBB: 16.5%
BBB
  BBB breakdown: 1 mM
  toxicity in the BBB model, comparison of CDs: most toxic among the three native CDs
[12]
  excretion: excreted almost completely in an intact form into the urine
Rats [13]; iv
  single dose i.v. LD50: 0.788/1.008 * g/kg
Rats [13]
  LD50: 1008 mg/kg
Human erythrocytes
  tolerance by human erythrocytes: better then β-CD
Human erythrocytes; human erythrocytes, listed as α-CD
  hemolytic activity: β-CD>α-CD>γ-CD; also recorded: lower than that of both β-CD and HP-β-CD
[6]
  oral absorption in rats: 2-3%
Rats [14]; 0.100 g/kg
  nephrosis, single dose s.c.: 0.100 no changes
Rats [14]; 1.000 g/kg
  nephrosis, single dose s.c.: 1.000 changes seen
[15]
  tolerability in eye-drops: well tolerated
Animal studies
  ototoxicity: did not show ototoxicity
